Measurements from article PMC11151938 (Nature, 2024).

Key:
[1] = tested on: panel of 90 non-mutant human kinases; settings: FDA-approved TKIs, comparison values; cited from earlier work
influenza = settings: mice and humans ref 36, 37; cited from earlier work
RIPK3 [2] = settings: cited from earlier work
RIPK3 [3] = molecular target: T1, RIPK3 (Homo sapiens, UniProt Q9Y572); settings: cited from earlier work
Ripk3−/− MEFs = experiment: RIPK1 kinase-driven cell death in Ripk3−/− MEFs; format: cell-based, mouse; settings: TNFα + TAK1 inhibitor
[4] = tested on: primary MEFs infected with PR8; experiment: IAV-induced necroptosis in primary MEFs; format: cell-based, mouse; settings: PR8 MOI 2, zVAD 50 μM
RIPK3 [5] = molecular target: T1, RIPK3; experiment: In vitro RIPK3 kinase assay; format: biochemical
necroptosis in cells = experiment: Necroptosis blockade in cells; format: cell-based; settings: read-out: blocking necroptosis in cells IC50

T1 sequence (Q9Y572 1-313): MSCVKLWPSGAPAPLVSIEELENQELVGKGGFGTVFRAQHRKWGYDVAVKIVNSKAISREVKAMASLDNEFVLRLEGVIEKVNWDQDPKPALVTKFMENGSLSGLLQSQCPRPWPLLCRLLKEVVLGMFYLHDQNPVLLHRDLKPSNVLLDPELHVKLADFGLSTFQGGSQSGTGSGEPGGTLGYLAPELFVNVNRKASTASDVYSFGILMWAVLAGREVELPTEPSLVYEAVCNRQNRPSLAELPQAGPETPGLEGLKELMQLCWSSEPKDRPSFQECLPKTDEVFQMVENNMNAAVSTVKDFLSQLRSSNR

CNC(=O)c1cc(Oc2ccc(NC(=O)Nc3ccc(Cl)c(C(F)(F)F)c3)cc2)ccn1 [Sorafenib]
S(35) selectivity score [1]: 0.22

CCOC(=O)C1=C[C@@H](OC(CC)CC)[C@H](NC(C)=O)[C@@H](N)C1 [oseltamivir]
time of administration after infection beyond which therapeutic benefit is lost (influenza): more than 48 h

CNC(=O)c1ccc2c(c1)ncn2-c1ccc(CC(=O)OC(C)(C)C)cc1 [GSK’840]
activity in cells (RIPK3 [2]): unexpectedly modest activity | activity against recombinant RIPK3 in vitro (RIPK3 [3]): potent activity

Cc1cc(-c2cnc(N)c3c(-c4ccc5scnc5c4)csc23)n(C)n1 [GSK’843]
activity in cells (RIPK3 [2]): unexpectedly modest activity | activity against recombinant RIPK3 in vitro (RIPK3 [3]): potent activity

CC(C)S(=O)(=O)c1ccc2nccc(Nc3ccc4scnc4c3)c2c1 [GSK’872]
activity in cells (RIPK3 [2]): unexpectedly modest activity

N#Cc1cc(N2CCC(C(=O)N3N=CC[C@H]3c3cc(F)cc(F)c3)CC2)ncn1 [GSK’547]
activity against RIPK1 kinase-driven cell death (Ripk3−/− MEFs): able to block such death

CCCS(=O)(=O)Nc1cc(-c2cc(-c3ccc(N4CCNCC4)cc3)cnc2N)cc(F)c1OC [CSLP37]
IAV-triggered necroptosis [4]: neither the ABL inhibitor imatinib (Gleevec) nor the selective RIPK2 inhibitor CSLP37[32] blocked IAV-triggered necroptosis

Cc1nc(Nc2ncc(C(=O)Nc3c(C)cccc3Cl)s2)cc(N2CCN(CCO)CC2)n1 [Dasatinib]
S(35) selectivity score [1]: 0.28

CCN(CC)CCOc1ccc(Nc2ncc3cc(-c4c(Cl)cccc4Cl)c(=O)n(C)c3n2)cc1 [PD166285]
IC50 (RIPK3 [5]): 1080 nM | IC50 (necroptosis in cells): 2880 nM

Cc1ccc(NC(=O)c2ccc(CN3CCN(C)CC3)cc2)cc1Nc1nccc(-c2cccnc2)n1 [imatinib]
IAV-triggered necroptosis [4]: neither the ABL inhibitor imatinib (Gleevec) nor the selective RIPK2 inhibitor CSLP37[32] blocked IAV-triggered necroptosis
